Measured values taken from patent US11472803B2, “7-substituted 1-aryl-naphthyridine-3-carboxylic acid amides and use thereof” (Bayer Aktiengesellschaft, priority 2016, dated 2022).

Target: T1, human M2 receptor (Homo sapiens, UniProt P08172)
T1 construct: expressed in transfected cells; host or cells: CHO-DUKX (CHO-DUKX-M2-GIRK)
T1 sequence (P08172 1-466): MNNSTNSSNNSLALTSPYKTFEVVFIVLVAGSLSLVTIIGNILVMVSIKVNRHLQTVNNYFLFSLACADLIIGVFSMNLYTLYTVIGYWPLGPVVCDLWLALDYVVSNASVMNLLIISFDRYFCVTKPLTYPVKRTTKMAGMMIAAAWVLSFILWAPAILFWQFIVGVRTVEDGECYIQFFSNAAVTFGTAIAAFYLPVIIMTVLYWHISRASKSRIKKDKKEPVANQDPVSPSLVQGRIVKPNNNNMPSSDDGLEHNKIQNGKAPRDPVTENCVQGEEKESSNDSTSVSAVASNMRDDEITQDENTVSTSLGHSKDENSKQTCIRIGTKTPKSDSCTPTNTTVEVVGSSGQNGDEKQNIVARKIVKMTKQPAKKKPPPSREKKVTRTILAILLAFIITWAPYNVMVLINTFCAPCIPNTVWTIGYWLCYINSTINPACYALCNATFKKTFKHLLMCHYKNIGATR
Assay: Functional M2-GIRK1/4 activation test: allosteric potency (EC50) and efficiency at EC20 acetylcholine
Type: cell-based
Settings: CHO-DUKX-M2-GIRK cells; for EC50: voltage-sensitive dye, acetylcholine at EC20, in some cases mean of two or more determinations; for Efficiency / Emax: boosting of the acetylcholine effect at EC20 acetylcholine concentration
Text: The binding of orthosteric agonists (endogenous ligand: acetylcholine) to the M2 receptor leads to receptor activation or a change in conformation of the receptor in the manner of a shift in equilibrium in favour of the active receptor conformation.
The agonist-induced change in conformation of the M2 receptor results in a Gαi protein activation. […] Under physiological conditions, the result is then a selective efflux of potassium from the cell along the electrochemical gradient. […] The extent of hyperpolarization can therefore be regarded as a measure of the activation of the M2 receptor.
The test cell used is a recombinant CHO-DUKX cell line which has been stably transfected with cDNA coding for the human M2 receptor and with cDNA coding for both GIRK1/4 subunits (CHO-DUKX-M2-GIRK). The transmembrane potential, or the relative changes in the transmembrane potential as a function of substance addition or M2 activation, is determined by means of a voltage-sensitive dye (FLIPR Membrane Potential Assay Kit Blue, Molecular Devices #R8034) and the measurement of cell fluorescence using a proprietary fluorescence imaging instrument.
The sowing medium consisted of MEM alpha medium (supplemented with 5% PCS, 2% Glutamax, no genticin).
For the particular measurement, the medium was removed and the cells were laden with the volt-age-sensitive dye for at least 6 min at room temperature (30 μl of loading buffer per 384-well). This was followed, in a first measurement, by the determination of the fluorescence for the resting transmembrane potential for a period of 5 sec. Thereafter, 10 μl in each case of the test substances diluted in loading buffer were added, followed by a second measurement to determine the transmembrane potential for a period of 50 sec in 1 sec increments. Finally, the cells were admixed with 10 μl of agonist solution (acetylcholine dissolved in loading buffer). Acetylcholine was used at the concentration corresponding to the EC20, which had been determined in a preliminary test. The M2-mediated GIRK1/4 activation or hyperpolarization was then monitored in a third measurement over a period of 60 sec. The EC50 value (degree of allosteric potency of test compound) and the efficiency (measure of the boosting of the acetylcholine effect at an EC20 acetylcholine concentration) were determined with the aid of a 4-parameter logistic function (Hill function).

| EC50 [nM] | Efficiency [%] | Emax [%] | Compound |
| --- | --- | --- | --- |
| 42.3 | 96 | – | CC(NC(=O)c1cn(-c2c(F)cc(F)cc2F)c2nc(N3CCC(O)C(O)C3)c(F)cc2c1=O)C(F)(F)C(F)(F)F (single isomer, unassigned) [Example 183, 7-(3,4-Dihydroxypiperidin-1-yl)-6-fluoro-4-oxo-N-(3,3,4,4,4-pentafluorobutan-2-yl)-1-(2,4,6-trifluorophenyl)-1,4-dihydro-1,8-naphthyridine-3-carboxamide] |
| 9.9 | – | 90 | CC(NC(=O)c1cn(-c2c(F)cc(F)cc2F)c2nc(N3CCC(CO)(CO)CC3)c(F)cc2c1=O)C(F)(F)C(F)(F)F (single isomer, unassigned) [Example 187, 7-[4,4-bis(hydroxymethyl)piperidin-1-yl]-6-fluoro-4-oxo-N-(3,3,4,4,4-pentafluorobutan-2-yl)-1-(2,4,6-trifluorophenyl)-1,4-dihydro-1,8-naphthyridine-3-carboxamide] |
| 31.5 | – | 94 | CC(NC(=O)c1cn(-c2c(F)cc(F)cc2F)c2nc(N3CC[C@H](O)[C@@H]3CO)c(F)cc2c1=O)C(F)(F)C(F)(F)F (single isomer, unassigned) [Example 194] |
| 1 | 100 | – | O=C(NC(C1CC1)C(F)(F)C(F)(F)F)c1cn(-c2c(F)cc(F)cc2F)c2nc(N3C[C@@H](O)[C@H](O)C3)c(F)cc2c1=O (single isomer, unassigned) [Example 202] |
| 17 | – | 97 | O=C(NC(C1CC1)C(F)(F)C(F)(F)F)c1cn(-c2c(F)cc(F)cc2F)c2nc(N3CC4(COC4)C3)c(F)cc2c1=O (single isomer, unassigned) [Example 204, N-[1-cyclopropyl-2,2,3,3,3-pentafluoropropyl]-6-fluoro-7-(2-oxa-6-azaspiro[3.3]hept-6-yl)-4-oxo-1-(2,4,6-trifluorophenyl)-1,4-dihydro-1,8-naphthyridine-3-carboxamide] |
| 10 | 100 | – | O=C(NC(C1CC1)C(F)(F)C(F)(F)F)c1cn(-c2c(F)cc(F)cc2F)c2nc(N3CC4(COC4)C3)c(F)cc2c1=O (single isomer, unassigned) [Example 206, N-[1-cyclopropyl-2,2,3,3,3-pentafluoropropyl]-6-fluoro-7-(2-oxa-6-azaspiro[3.3]hept-6-yl)-4-oxo-1-(2,4,6-trifluorophenyl)-1,4-dihydro-1,8-naphthyridine-3-carboxamide] |
| 13 | – | 100 | CC(C)(C)C(NC(=O)c1cn(-c2c(F)cc(F)cc2F)c2nc(N3CC4(COC4)C3)c(F)cc2c1=O)C(F)(F)C(F)(F)F (single isomer, unassigned) [Example 213, 6-Fluoro-7-(2-oxa-6-azaspiro[3.3]hept-6-yl)-4-oxo-N-[1,1,1,2,2-pentafluoro-4,4-dimethylpentan-3-yl]-1-(2,4,6-trifluorophenyl)-1,4-dihydro-1,8-naphthyridine-3-carboxamide] |
| 2.1 | – | 100 | CC(C)(C)C(NC(=O)c1cn(-c2c(F)cc(F)cc2F)c2nc(N3CC(CO)(CO)C3)c(F)cc2c1=O)C(F)(F)C(F)(F)F (single isomer, unassigned) [Example 214, 7-[3,3-bis(hydroxymethyl)azetidin-1-yl]-6-fluoro-4-oxo-N-[1,1,1,2,2-pentafluoro-4,4-dimethylpentan-3-yl]-1-(2,4,6-trifluorophenyl)-1,4-dihydro-1,8-naphthyridine-3-carboxamide] |
| 8.6 | 100 | – | CC(C)(C)C(NC(=O)c1cn(-c2c(F)cc(F)cc2F)c2nc(N3CC4(COC4)C3)c(F)cc2c1=O)C(F)(F)C(F)(F)F (single isomer, unassigned) [Example 215, 6-Fluoro-7-(2-oxa-6-azaspiro[3.3]hept-6-yl)-4-oxo-N-[1,1,1,2,2-pentafluoro-4,4-dimethylpentan-3-yl]-1-(2,4,6-trifluorophenyl)-1,4-dihydro-1,8-naphthyridine-3-carboxamide] |
